Laboratory results reported in patent US4342774A, “N-Acylcarnosine aluminum salt, its preparation, and a digestive ulcer remedy containing such salt” (Nippon Chemiphar Co., Ltd., priority 1979, dated 1982).
“And” between values parts separate entries of the source, which are not always exact repeats. Identical values can stand only once. Counter-ions that a name gives are not always drawn.

Tests used:
[1] = tested on: Shay's ulcer; experiment: Shay's ulcer (pylorus ligation), inhibitory effect, rats; type: in vivo, rat (male Donryu strain); settings: P.O.; for Ulcer index (total area of all lesions) / % Inhibition: 1,000 mg/kg; for Ulcer index (total area of all lesions): immediately after pylorus ligation; for inhibition in vivo at 1000 mg/kg: 14 h, 1,000 mg/kg
Description: (§1) It will be noted that as control compounds for the purposes of comparison, use was made of L-carnosine, L-glutamine, N-acetyl-L-glutamine aluminum and aluminum sucrose sulfate which are known to have an anti-ulcer effect. The anti-ulcer effects and degrees of toxicity of the N-acylcarnosine aluminum compounds according to the invention were determined using rats in which instances various gastric ulcer models of rats were utilized to estimate the anti-ulcer effects.
Shay's ulcer: Groups of ten male Donryu strain rats each weighing 210 to 230 g were deprived of food for 48 hours. The pylorus of each rat was ligated according to the method of Shay et al [Gastroenterology, 5, 43-61 (1945)]. Each of the animals was allowed to stand abstained from food and water for further 14 hours and then sacrificed to remove its stomach. After collection of the gastric juice, the ulcerated area (mm^2) in the forestomach of each rat was measured under a dissecting microscope (10x). The total area (mm^2) of all the lesions of each rat was indicated as an ulcer index. Test medicine samples were given orally immediately after the pylorus ligation.

[2] = tested on: Stress ulcer; experiment: Stress ulcer (water immersion restraint), inhibitory effect, rats; type: in vivo, rat (male Donryu strain); settings: P.O.; for Ulcer index (total length of all lesions): ten minutes before immersion; for % Inhibition: vs control of the same run
Description: (§2) The anti-ulcer effects and degrees of toxicity of the N-acylcarnosine aluminum compounds according to the invention were determined using rats in which instances various gastric ulcer models of rats were utilized to estimate the anti-ulcer effects.
Stress ulcer: Groups of ten male Donryu strain rats each weighing 240 to 260 g were placed in a stress cage which served to immobilize the animals therein and then immersed in a water bath of 23° C. on a level with the xiphoid process according to the method of K. Takagi et al [Jap. […] Seven hours after the immersion, each of the animals was withdrawn from the water bath and immediately sacrificed by a blow on the head, followed by removal of the stomach of each rat. The stomach was slightly inflated by injecting a 1% formalin solution and then immediately immersed in a 1% formalin solution, followed by incising the stomach along its greater curvature to measure the length (mm) of each lesion in the glandular portion under a dissecting microscope (10x). The total length (mm) of all the lesions of each rat was indicated as an ulcer index. Test medicine samples were given orally ten minutes before the immersion in water.

[3] = tested on: Aspirin-induced ulcer; experiment: Aspirin-induced ulcer, inhibitory effect, rats; type: in vivo, rat (male Donryu strain); settings: 1,000 mg/kg, P.O.; for Ulcer index (total length of all lesions): immediately after pylorus ligation, aspirin 100 mg/kg; for % Inhibition: vs control of the same run
Description: as §1
Aspirin-induced ulcer: Groups of ten male Donryu strain rats each weighing 220 to 230 g were deprived of food for 24 hours. The pylorus of each rat was ligated under ether anethesia according to the method of S. Okabe et al [Jap. J. Pharmac. 24, 357-361 (1974)]. After the pylorus ligation, aspirin (100 mg/kg) was administered orally to each rat. Seven hours after the administration, each of the animals was sacrificed under ether anesthesia to remove its stomach. After collection of the gastric juice and treatment with a 1% formalin solution, the length (mm) of each lesion formed in the glandular portion was measured. The total length (mm) of all the lesions of each rat was indicated as an ulcer index. Test medicine samples were given orally immediately after the pylorus ligation.

[4] = tested on: Indomethacin-induced ulcer; experiment: Indomethacin-induced ulcer, inhibitory effect, rats; type: in vivo, rat (male Donryu strain); settings: 300 mg/kg, P.O.; for Ulcer index (total length of all lesions): ten minutes before pylorus ligation, indomethacin 25 mg/kg s.c.; for % Inhibition: vs control of the same run
Description: as §1
Indomethacin-induced ulcer: Groups of ten male Donryu strain rats each weighing 200 to 215 g were deprived of food for 24 hours. Then, the pylorus was ligated under ether anethesia, after which indomethacin was administered subcutaneously in an amount of 25 mg/kg to each rat. Seven hours after the administration, each of the animals was scarificed under ether anethesia to remove its stomach, followed by immersion in a 1% formalin solution for ten minutes. The stomach which had been semi-fixed was incised along its greater curvature, and the length (mm) of each lesion formed in the mucous membrane was measured under a dissecting microscope (10×). The total length (mm) of all the lesions of each rat was indicated as an ulcer index. Test medicine samples were given orally ten minutes before the pylorus legation.

[5] = tested on: Histamine-induced ulcer; experiment: Histamine-induced ulcer, inhibitory effect, rats; type: in vivo, rat (male Donryu strain); settings: P.O.; for Ulcer index (total length of all lesions): before histamine phosphate 300 mg/kg i.p.; for % Inhibition: vs control of the same run
Description: as §2
Histamine-induced ulcer: Groups of ten male Donryu strain rats each weighing 210 to 230 g were deprived of food for 48 hours and then administered intraperitoneally with histamine phosphate (300 mg/kg). Four hours after the administration, each of the animals was sacrificed under ether anesthesia, followed by removal of the stomach and immersion in a 1% formalin solution for ten minutes. The stomach which had been semi-fixed was incised along the greater curvature, and the length (mm) of each lesion was measured under a dissecting microscope (10×). The total length (mm) of all the lesions of each rat was indicated as an ulcer index. Test medicine samples were given orally before the histamine administration.

[6] = Acute toxicity, oral, rats; type: in vivo; settings: rat, in vivo, po; P.O., male rats, observed seven days
Description: (§3) Acute toxicity: Male and female Wister strain rats each weighing 150 to 200 g were divided into two groups, respectively, each group consisting of ten rats, and were administered orally with some of the N-acylcarnosine aluminum compounds according to the invention. The thus treated rats were visually observed for seven days after the administration.

[7] = tested on: rats; experiment: Acute toxicity, oral, rats; type: in vivo; settings: P.O., female rats, observed seven days; 10080 min
Description: as §3

[8] = Rattus norvegicus, po, vs control of the same run

Compound	Ulcer index (total area of all lesions) [1]	inhibition in vivo at 1000 mg/kg [1, 8]	Ulcer index (total length of all lesions) ([2]; 1,000 mg/kg)	% Inhibition ([2]; 1,000 mg/kg)	Ulcer index (total length of all lesions) [3]	% Inhibition [3]	Ulcer index (total length of all lesions) [4]	% Inhibition [4]	Ulcer index (total length of all lesions) ([5]; 300 mg/kg)	% Inhibition ([5]; 300 mg/kg)	% Inhibition ([1]; vs control of the same run)	further results
CC(=O)NCCC(=O)NC(Cc1c[nH]cn1)C(=O)O (racemic) [A, N-acetyl-DL-carnosine aluminum salt]	0.5 ± 0.5 mm^2	79.2%	4.4 ± 2.2 mm	71.1%	0.6 ± 0.6 mm	96.6%	6.5 ± 2.2 mm	60.1%	9.6 ± 1.8 mm	60.2%		Ulcer index (total length of all lesions) ([2]; 300 mg/kg): 8.0 ± 2.8 mm; % Inhibition ([2]; 300 mg/kg): 47.4%; LD50 at 168 h [6]: > 10000 mg/kg; LD50 [7]: > 10,000 mg/kg
CC(=O)NCCC(=O)N[C@@H](Cc1c[nH]cn1)C(=O)O [B, N-acetyl-L-carnosine aluminum salt]	0.6 ± 0.4 mm^2	76%	4.8 ± 2.6 mm	72.6%	0.6 ± 0.6 mm	96.4%	6.4 ± 2.2 mm	61.9%	9.1 ± 1.9 mm	60.4%		Ulcer index (total length of all lesions) ([2]; 300 mg/kg): 9.2 ± 3.0 mm; % Inhibition ([2]; 300 mg/kg): 47.4%; LD50 at 168 h [6]: > 10000 mg/kg; LD50 [7]: > 10,000 mg/kg
CC(=O)NCCC(=O)N[C@@H](Cc1c[nH]cn1)C(=O)O [C, N-acetyl-L-carnosine aluminum salt]	1.0 ± 0.7 mm^2										65.5%	
CC(=O)NCCC(=O)N[C@@H](Cc1c[nH]cn1)C(=O)O [D, N-acetyl-L-carnosine aluminum salt]	0.9 ± 0.9 mm^2										69.0%	
CCC(=O)NCCC(=O)N[C@@H](Cc1c[nH]cn1)C(=O)O [E, N-propionyl-L-carnosine aluminum salt]	0.7 ± 0.5 mm^2	77.4%										
CCC(=O)NCCC(=O)N[C@@H](Cc1c[nH]cn1)C(=O)O [F, N-propionyl-L-carnosine aluminum salt]	0.9 ± 0.7 mm^2										71.0%	
CCCCCCC(=O)NCCC(=O)N[C@@H](Cc1c[nH]cn1)C(=O)O [G, N-heptanoyl-L-carnosine aluminum salt]	0.9 ± 1.0 mm^2	71%										
O=C(CCNC(=O)c1ccccc1)N[C@@H](Cc1c[nH]cn1)C(=O)O [H, N-benzoyl-L-carnosine aluminum salt]	1.0 ± 0.9 mm^2	67.7%										
COc1ccccc1C(=O)NCCC(=O)N[C@@H](Cc1c[nH]cn1)C(=O)O [I, N-(o-methoxy)benzoyl-L-carnosine aluminum salt]	1.1 ± 0.8 mm^2	64.5%										
NCCC(=O)N[C@@H](Cc1c[nH]cn1)C(=O)O [L-Carnosine, L-carnosine]		12.5%	10.7 ± 2.2 mm and 12.1 ± 2.5 mm	29.6% and 30.9%			17.3 ± 3.0 mm and 17.1 ± 3.1 mm	~ 0%	17.3 ± 3.2 mm and 18.0 ± 2.7 mm	28.2% and 21.7%		Ulcer index (total length of all lesions) ([2]; 300 mg/kg): 14.2 ± 3.7 mm and 16.0 ± 4.0 mm; % Inhibition ([2]; 300 mg/kg): 6.6% and 8.6%
NC(=O)CC[C@H](N)C(=O)O [L-Glutamine, L-glutamine]		8.3%			6.0 ± 2.2 mm and 4.5 ± 1.5 mm	66.1% and 73.2%	9.5 ± 4.1 mm and 9.7 ± 3.9 mm	41.8% and 42.3%				
CC(=O)N[C@@H](CCC(N)=O)C(=O)O.[Al] [N-Acetyl-L-glutamine aluminum, N-acetyl-L-glutamine aluminum]												inhibition in vivo at 2000 mg/kg ([1]; Rattus norvegicus, po, 14 h, 2,000 mg/kg, vs control of the same run): 67.7%; Ulcer index (total length of all lesions) ([2]; 2,000 mg/kg): 5.5 ± 4.8 mm; % Inhibition ([2]; 2,000 mg/kg): 68.6%; Ulcer index (total length of all lesions) ([5]; 2,000 mg/kg): 8.5 ± 3.0 mm; % Inhibition ([5]; 2,000 mg/kg): 63.0%
aluminum sucrose sulfate	0.8 ± 0.6 mm^2 and 0.9 ± 0.5 mm^2 and 0.7 ± 0.8 mm^2 and 0.8 ± 0.9 mm^2		6.5 ± 6.0 mm and 7.3 ± 6.8 mm	56.7% and 58.3%	3.7 ± 2.1 mm and 2.0 ± 1.1 mm	79.1% and 88.1%	7.8 ± 3.0 mm and 7.4 ± 2.8 mm	52.1% and 56.0%	14.4 ± 1.5 mm and 10.7 ± 2.1 mm	40.2% and 53.5%	72.4% and 71.0% and 71.7% and 68.0%	
